Measured values reported in US20230054333A1, “Herbicide Combinations Comprising Glufosinate and Saflufenacil” (BASF SE, priority 2020, published 2023).

What was measured:
Settings in all cases: visual scale 0 to 100, mean of three replications
Palmer amaranth = test: Greenhouse post emergence treatment, visual herbicidal activity against Palmer amaranth; type: in vivo, Amaranthus palmeri
Excerpt: (§1) Synergism can be described as an interaction where the combined effect of two or more compounds is greater than the sum of the individual effects of each of the compounds. The presence of a synergistic effect in terms of percent control, between two mixing partners (X and Y) can be calculated using the Colby equation (Colby, S. R., 1967, Calculating Synergistic and Antagonistic Responses in Herbicide Combinations, Weeds, 15, 21-22):
(§2) When the observed combined control effect is greater than the expected (calculated) combined control effect (E), then the combined effect is synergistic.
(§3) Weeds included Palmer aamaranth (Amaranthus palmen) and crop plants included soybean (Glycine max) with glufosinate tolerance (Liberty Link, BASF) or glyphosate tolerance (Roundup Ready, Bayer). However, the herbicidal effect afforded by the compounds, mixtures or compositions is not limited to these species. The analysis of synergism or antagonism between the mixtures or compositions was determined using Colby's equation.
(§4) Pots with 0.3 L of volume were filled with soil (SunGro Horticulture, Agawam, MA 01001) to grow one plant per pot in the greenhouse until the desired developmental stage. […] During this time, the plants were tended, and their response to the individual treatments was evaluated. […]

Roundup Ready Soybean = test: Greenhouse post emergence treatment, visual herbicidal activity against Roundup Ready soybean; type: in vivo, Glycine max
Excerpt: as §1, §2, §3, §4

LibertyLink Soybean = test: Greenhouse post emergence treatment, visual herbicidal activity against LibertyLink soybean; type: in vivo, Glycine max
Excerpt: as §1, §2, §3, §4

| SMILES | Herbicidal activity against Palmer amaranth (2 DAT) Found (Palmer amaranth; Glufosinate 280 g ai/ha) | Herbicidal activity against Roundup Ready Soybean (2 DAT) Found (Roundup Ready Soybean; Glufosinate 280 g ai/ha) | Herbicidal activity against LibertyLink Soybean (2 DAT) Found (LibertyLink Soybean; Glufosinate 280 g ai/ha) | Herbicidal activity against Palmer amaranth (2 DAT) Found (Palmer amaranth; Saflufenacil 1 g ai/ha) | Herbicidal activity against Roundup Ready Soybean (2 DAT) Found (Roundup Ready Soybean; Saflufenacil 1 g ai/ha) | Herbicidal activity against LibertyLink Soybean (2 DAT) Found (LibertyLink Soybean; Saflufenacil 1 g ai/ha) |
| --- | --- | --- | --- | --- | --- | --- |
| CP(=O)(O)CCC(N)C(=O)O (racemic) [Glufosinate, (2RS)-2-amino-4-[hydroxy(methyl)phosphinoyl]butyric acid] | 20 | 35 | 5 | – | – | – |
| CC(C)N(C)S(=O)(=O)NC(=O)c1cc(-n2c(=O)cc(C(F)(F)F)n(C)c2=O)c(F)cc1Cl [Saflufenacil] | – | – | – | 4 | 0 | 1 |
